Common to all, as to assay type: cell-based, human
The test system of one assay is TIFA-TdT THP1 cells. Nature of the assay: TIFAsome formation assay. The protocol: THP1-TIFA-tdTomato cells (1*10^6) were stimulated with various human plasma samples (100 μl) for 30 mins in a 37° C. water bath in final volume of 200 μl. Cells were harvested, washed with PBS+2% FBS+2 mM EDTA (MACS buffer) and fixed with 4% Paraformaldehyde (PFA, Cat no. 15710, Electron Microscopy Sciences). After fixation, cells were washed again and then resuspended in 50 μl MACS buffer. Cells were then analyzed for TIFAsome formation on an Amnis Imagestream Mk II Imaging Flow Cytometer ISX-100 (Luminex) according to the manufacturer's instructions. Downstream analysis was performed in IDEAS analysis software (Amnis). TIFAsome positive cells were identified by gating on Mean Pixel Intensity and Max Pixel Intensity for bright puncta analysis using the IDEAS Image Data Exploration and Analysis Software. A standard curve was prepared by calculating % TIFAsome positive cells using samples which were stimulated with serial increasing doses of ADP-heptose covering the concentration range of 10 to 100,000 ng/ml. […]
THP1-TIFA-tdTomato-GFP cells were suspended at 1×10^6 cells/mL and treated with either human plasma samples (50 μl) in final volume of 200 μl for 30 minutes, or the inhibitor for 1 hour to allow for entry into the cell and then stimulated with ADP-heptose for 30 minutes. […] Images were acquired using a Nikon Ni-E Upright widefield fluorescent scope and analyzed using Nikon Elements.

A further assay has as its system healthy donor cells. Briefly: Immunoblot of NF-κB activation in CD34+ HSPCs. The protocol:
(§1) Human CD34+ and MDS patient cells were maintained in StemSpan Serum-Free Expansion Media (Cat no. #09650, Stemcell Technologies) supplemented with 10 ng/ml of recombinant human stem cell factor (SCF) (Cat no. 300-07-50UG, PeproTech), recombinant human thrombopoietin (TPO) (Cat no. 300-18-50UG, PeproTech), recombinant human FLT3 ligand (FLT3L) (Cat no. 300-19-50UG, PeproTech), recombinant human interleukin-3 (IL-3) (Cat no. 200-03-50UG, PeproTech), and recombinant human interleukin-6 (IL-6) (Cat no. 200-06-50UG, PeproTech), as previously described. Human CD34+ cells from healthy individuals were obtained from the Yale Cooperative Center of Excellence in Hematology (YCCEH). […]
(§2) Protein concentration was evaluated by bicinchoninic acid (BCA) assay (Pierce, Cat #23225). SDS sample buffer was added to the lysates and the proteins were separated by SDS-polyacrylamide gel electrophoresis, transferred to PVDF or nitrocellulose membranes (BIO-RAD, Cat #1620112), and analyzed by immunoblotting. […] Membranes were visualized using ECL Western Blotting Substrate (Pierce, #32106) or SuperSignal West Femto Substrate (Thermo Scientific, #34096), imaged on a BIO-RAD ChemiDoc Touch Imaging system and analyzed with Image lab software 6.0.1 (Biorad) or Image J (22930834).
In general terms: A western blot detects proteins with antibodies after separation by electrophoresis.

A further assay concerns MDS CD34+ HSPCs. Nature of the assay: Immunoblot of NF-κB activation in CD34+ HSPCs. The protocol: as §1, §2
The next assay concerns NF-κB in THP1 cells. Nature of the assay: NF-κB signaling (immunoblot) and THP1-Blue NF-kB SEAP reporter. The protocol: as §2
THP1-Blue NF-kB SEAP reporter cells (Cat no. thp-nkfb, Invivogen) were grown at 20,000 cells per well (200 μl) in a 96-well plate with the indicated agonists and inhibitors for 24 hours. […] The absorbance was read at 630 nm for a final readout. For analysis, media absorbance was subtracted, experimental values were normalized to vehicle control, and triplicates were averaged.

For `Nc1ncnc2c1ncn2[C@@H]1O[C@H](COP(=O)(O)OP(=O)(O)O[C@@H]2O[C@H]([C@H](O)CO)[C@@H](O)[C@H](O)[C@@H]2O)[C@@H](O)[C@H]1O` [ADP-heptose, ADP-D-glycero-β-D-manno-heptose], the “TIFAsome formation (discrete puncta in the cytoplasm)” value in the assay with TIFA-TdT THP1 cells is listed as “rapidly induce TIFAsome formation”. The “TIFA-dependent activation of NF-κB (phosphorylated IKKα/β and RelA)” value is given as “not in healthy donor cells” in the assay on healthy donor cells and “able to induce TIFA-dependent activation of NF-κB” with MDS CD34+ HSPCs. Also, in the assay on NF-κB in THP1 cells (TIFA-deficient THP1 cells), the NF-kB activation result is recorded as “unable to activate NF-kB”. Besides, the “canonical NF-κB signaling and transcriptional activation” value with NF-κB in THP1 cells (human leukemic cells (THP1)) was “induce canonical NF-κB signaling and transcriptional activation”.

The values above are taken from patent US20250314644A1, “METHODS COMPRISING DETECTION OF ADP-HEPTOSE” (CHILDREN'S HOSPITAL MEDICAL CENTER, priority 2023, published 2025).
